This passage reports GI50 and TGI results from PubChem BioAssay (NCI).

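Cultured in 96-well plates, cells were exposed to test compound for 48 hours across five concentrations. GI50 marks 50% less growth. TGI is the concentration that stops growth completely.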

Test systems include SK-OV-3 ovarian; CAKI-1 renal; HOP-92 NSCLC; OVCAR-4 ovarian; SF-539 CNS; HL-60(TB) leukemia; LOX IMVI melanoma; KM12 colon; 786-0 renal; SR leukemia.
What all share (assay): NCI tumour cell line growth inhibition, 48 h

For the compound `COC(=O)c1c(O)c([N+](=O)[O-])cc2c1c1c(n2Cc2ccccc2)C(=O)c2ccccc2C1=O`, the GI50 in the assay with SK-OV-3 ovarian was above 100 µM; in the assay on CAKI-1 renal it was 38.2 µM; with HOP-92 NSCLC it was 8.08 µM; with OVCAR-4 ovarian, 57.3 µM; with SF-539 CNS it was 18.3 µM; in the assay on HL-60(TB) leukemia it was 25.7 µM. Moreover, the GI50 is above 100 µM in the assay on LOX IMVI melanoma, 21.5 µM in the assay with KM12 colon and 15.7 µM in the assay with 786-0 renal. Besides, the TGI with SK-OV-3 ovarian was above 100 µM; in the assay with CAKI-1 renal, above 100 µM; in the assay on HOP-92 NSCLC it was 63 µM; in the assay with OVCAR-4 ovarian it was above 100 µM; with SF-539 CNS it was 55.3 µM; with HL-60(TB) leukemia it was above 100 µM. Moreover, the TGI is above 100 µM with LOX IMVI melanoma, 78.5 µM in the assay with KM12 colon and 59.6 µM in the assay on 786-0 renal.

Consider `CCN(CC)CCCC(C)Nc1nc(C)cc(Nc2ccc3nc(C)cc(N)c3c2)n1` (stereo not drawn), for which the GI50 with SK-OV-3 ovarian was above 100 µM; in the assay on OVCAR-4 ovarian, 20.9 µM; in the assay with SF-539 CNS, 20.8 µM; in the assay with LOX IMVI melanoma, 18.4 µM; with KM12 colon, 19.3 µM; in the assay on 786-0 renal, above 100 µM. In the assay with SR leukemia, the GI50 is 0.024 µM. The TGI in the assay with SK-OV-3 ovarian was above 100 µM; in the assay on OVCAR-4 ovarian it was 60.8 µM; in the assay with SF-539 CNS, 43.6 µM; in the assay on LOX IMVI melanoma, 39.8 µM; in the assay with KM12 colon, 40.1 µM; in the assay with 786-0 renal it was above 100 µM. For the same compound, the TGI in the assay on SR leukemia turned out to be 22.8 µM.

Consider `COC1=CC23CCCN2CCc2cc4c(cc2C3C1O)OCO4` (stereo not drawn), for which the TGI in the assay with SK-OV-3 ovarian was above 100 µM; with CAKI-1 renal, 92 µM; in the assay on HOP-92 NSCLC it was above 100 µM; in the assay with OVCAR-4 ovarian, above 100 µM; in the assay on SF-539 CNS it was above 100 µM; in the assay with HL-60(TB) leukemia, 83.8 µM. For the same compound, the TGI in the assay on LOX IMVI melanoma, in the assay on KM12 colon and in the assay on 786-0 renal was above 100 µM throughout.

For `Cc1cc2cn3c4ccc(O)cc4[nH]c(=O)c3c2cc1C`, the GI50 in the assay on SK-OV-3 ovarian was 0.0293 µM; with CAKI-1 renal it was 0.0323 µM; with HOP-92 NSCLC, 0.0723 µM; with OVCAR-4 ovarian, 0.0675 µM; with SF-539 CNS, 0.0223 µM; in the assay with KM12 colon it was 0.0374 µM. In addition, the GI50 in the assay on 786-0 renal is 0.0696 µM; in the assay with SR leukemia, 0.0342 µM. Moreover, the TGI in the assay with SK-OV-3 ovarian was determined as 0.298 µM; in the assay with CAKI-1 renal it was 1.5 µM; in the assay with HOP-92 NSCLC, 1.95 µM; in the assay with OVCAR-4 ovarian, 1.81 µM; in the assay on SF-539 CNS it was 0.0601 µM; in the assay with KM12 colon it was 0.553 µM. Moreover, the TGI was determined as 1.83 µM with 786-0 renal and 0.415 µM in the assay on SR leukemia.

For `CN(CCc1ccccn1)c1nc(=[N+](C)C)ss1`, the TGI with SK-OV-3 ovarian, in the assay on CAKI-1 renal, in the assay with HOP-92 NSCLC, in the assay on OVCAR-4 ovarian, in the assay on SF-539 CNS and in the assay with HL-60(TB) leukemia was above 100 µM in each case. For the same compound, the TGI in the assay on LOX IMVI melanoma, in the assay on KM12 colon and in the assay on 786-0 renal was above 100 µM each time.

With `O=C(Cc1nc2ccccc2s1)C(=O)Nc1cccc(Cl)c1`, the TGI in the assay on SK-OV-3 ovarian, in the assay on CAKI-1 renal, in the assay on HOP-92 NSCLC, in the assay with OVCAR-4 ovarian, in the assay on SF-539 CNS and with HL-60(TB) leukemia was above 100 µM each time. Moreover, the TGI with LOX IMVI melanoma, in the assay with KM12 colon and in the assay with 786-0 renal was above 100 µM each time.

Regarding `CCN1C2=NCCN2S(=O)(=O)c2ccccc21`, the TGI in the assay on SK-OV-3 ovarian, in the assay with CAKI-1 renal, in the assay with HOP-92 NSCLC, in the assay with OVCAR-4 ovarian, with SF-539 CNS and in the assay with HL-60(TB) leukemia was above 100 µM in each case. Also, the TGI with LOX IMVI melanoma, with KM12 colon and in the assay on 786-0 renal was above 100 µM each time.

For the compound `CCCCCCCCCCCCCCCC[N+](C)(CCO)Cc1cnc[nH]1` (stereo not drawn), the GI50 in the assay on SK-OV-3 ovarian was 1.5 µM; in the assay on CAKI-1 renal it was 0.622 µM; in the assay with HOP-92 NSCLC, 0.922 µM; in the assay on OVCAR-4 ovarian, 0.978 µM; with SF-539 CNS, 1.78 µM; with HL-60(TB) leukemia, 0.39 µM. The figures for the GI50 with 786-0 renal and in the assay with SR leukemia were 0.852 µM and 1.97 µM, respectively. Further, the TGI was found to be 5.22 µM in the assay with SK-OV-3 ovarian; 4.47 µM in the assay with CAKI-1 renal; 3.82 µM in the assay on HOP-92 NSCLC; 56.4 µM in the assay with OVCAR-4 ovarian; 4.75 µM in the assay with SF-539 CNS; 2 µM in the assay on HL-60(TB) leukemia. In addition, the TGI with 786-0 renal is 2.84 µM; with SR leukemia it was above 100 µM.

Regarding `Cc1ccc(C2NC(=O)c3ccccc3N2)s1` (stereo not drawn), the TGI with SK-OV-3 ovarian was 91.6 µM; with SF-539 CNS, 14.4 µM; in the assay on HL-60(TB) leukemia it was 8.17 µM; in the assay on LOX IMVI melanoma it was above 100 µM; in the assay with KM12 colon, above 100 µM; in the assay on 786-0 renal it was above 100 µM. In addition, in the assay with SR leukemia, the TGI is above 100 µM.

On to `COc1ccc(N/N=C(\CCN(C)C)c2ccccc2)cc1`, for which the TGI with SK-OV-3 ovarian was found to be 9.74 µM; with OVCAR-4 ovarian, 17.1 µM; with SF-539 CNS, 3.69 µM; in the assay with HL-60(TB) leukemia it was 12.9 µM; in the assay with LOX IMVI melanoma it was 7.74 µM; in the assay on KM12 colon it was 18 µM. In addition, the TGI in the assay with 786-0 renal stood at 12.4 µM; with SR leukemia, 15.6 µM.

Regarding `O=C(/C=N/O)Nc1cc(Cl)c(Cl)cc1Cl`, the TGI in the assay with SK-OV-3 ovarian is above 100 µM; in the assay with CAKI-1 renal it was 79.8 µM; in the assay with HOP-92 NSCLC, above 100 µM; in the assay on OVCAR-4 ovarian, above 100 µM; with SF-539 CNS it was above 100 µM; in the assay on HL-60(TB) leukemia it was 53.8 µM. Also, the values for the TGI in the assay with LOX IMVI melanoma, in the assay on KM12 colon and in the assay with 786-0 renal were above 100 µM, 84.3 µM and above 100 µM, respectively.

For the compound `NC(=O)c1coc(C2OC(CO)C(O)C2O)n1` (stereo not drawn), the TGI with SK-OV-3 ovarian, in the assay on HOP-92 NSCLC, in the assay with OVCAR-4 ovarian, in the assay with SF-539 CNS, with HL-60(TB) leukemia and with LOX IMVI melanoma was above 100 µM in each case. For the same compound, the TGI in the assay on KM12 colon, with 786-0 renal and in the assay with SR leukemia was above 100 µM in each case.
